Experiment [1] addresses Poly [ADP-ribose] polymerase 2 (Mus musculus, UniProt O88554). The experiment can be described thus: Inhibition of recombinant full length mouse PARP-2 after 10 mins using [3H]NAD+ by solution-phase assay.
For experiment [2], the system named is LNCaP. The experiment can be described thus: Growth inhibition of human LNCAP cells after 7 days by MTS assay. The note with it: 168 h. In general terms: Tetrazolium assays rely on reduction of a dye to a coloured formazan, in cell work by metabolically active cells.
Experiment [3] addresses Poly [ADP-ribose] polymerase 1 (Homo sapiens, UniProt P09874). The experiment can be described thus: Inhibition of full length human PARP-1 after 10 mins by FlashPlate scintillation proximity assay. On the technique in general: Scintillation proximity formats need no separation of bound from free tracer.
In experiment [4] the test system is HT-29. The experiment can be described thus: Growth inhibition of human HT-29 cells after 7 days by MTS assay. The note with it: HT-29, 168 h.
Experiment [5] relates to MDA-MB-231. The experiment can be described thus: Growth inhibition of human MDA-MB-231 cells after 7 days by MTS assay. The note with it: MDA-MB-231, 168 h.
Experiment [6] is described as follows: Growth inhibition of human FEK4 cells after 7 days by MTS assay. The note with it: FEK4, 168 h.
Experiment [7] deals with PARP (mixed cellular PARPs). The experiment can be described thus: Inhibition of mixed PARPs from broken cell nuclei by broken nuclei assay.
Experiment [8] has as its target PARP (mixed cellular PARPs). Described as above. The source holds these as a separate data set.
The nature of experiment [9]: Selectivity ratio, ratio of IC50 for full length human PARP-1 to IC50 for recombinant full length mouse PARP-2.
Experiment [10] can be described thus: Selectivity for recombinant full length mouse PARP-2 over full length human PARP-1.
The test system of experiment [11] is CT26. The experiment can be described thus: Inhibition of mouse CT26 cell proliferation at 1 mM. The experiment is classed as functional.

SMILES strings stand for the structures. Several values for one entry are separate records, joined by “and”; a condition that tells them apart may be missing. Equal values may be shown once.

Sequence of Poly [ADP-ribose] polymerase 1 (P09874 whole entry): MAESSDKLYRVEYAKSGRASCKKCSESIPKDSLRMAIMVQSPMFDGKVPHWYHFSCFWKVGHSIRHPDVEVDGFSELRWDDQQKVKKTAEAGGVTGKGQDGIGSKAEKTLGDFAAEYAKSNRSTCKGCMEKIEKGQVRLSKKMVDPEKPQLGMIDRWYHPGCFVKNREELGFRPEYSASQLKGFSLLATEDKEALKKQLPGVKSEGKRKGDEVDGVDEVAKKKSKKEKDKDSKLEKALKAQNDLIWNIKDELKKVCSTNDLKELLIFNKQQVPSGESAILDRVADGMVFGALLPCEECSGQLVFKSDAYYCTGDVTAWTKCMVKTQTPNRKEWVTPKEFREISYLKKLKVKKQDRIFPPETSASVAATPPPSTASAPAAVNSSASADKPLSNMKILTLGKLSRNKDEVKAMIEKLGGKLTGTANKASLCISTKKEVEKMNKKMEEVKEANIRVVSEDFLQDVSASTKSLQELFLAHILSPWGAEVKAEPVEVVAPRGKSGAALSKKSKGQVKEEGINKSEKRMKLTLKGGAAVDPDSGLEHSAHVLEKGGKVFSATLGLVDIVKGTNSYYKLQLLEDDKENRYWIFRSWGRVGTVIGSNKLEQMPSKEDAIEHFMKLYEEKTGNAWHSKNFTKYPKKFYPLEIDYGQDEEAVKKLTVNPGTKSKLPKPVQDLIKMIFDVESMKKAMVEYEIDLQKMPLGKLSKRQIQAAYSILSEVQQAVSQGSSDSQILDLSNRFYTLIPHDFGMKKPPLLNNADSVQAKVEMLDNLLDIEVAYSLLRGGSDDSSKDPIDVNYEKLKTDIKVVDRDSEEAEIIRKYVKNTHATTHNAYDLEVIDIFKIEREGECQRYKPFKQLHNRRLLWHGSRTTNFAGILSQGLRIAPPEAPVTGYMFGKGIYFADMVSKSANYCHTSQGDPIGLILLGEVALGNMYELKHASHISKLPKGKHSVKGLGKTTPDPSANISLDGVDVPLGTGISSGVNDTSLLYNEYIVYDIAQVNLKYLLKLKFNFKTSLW
Sequence of Poly [ADP-ribose] polymerase 2 (O88554 whole entry): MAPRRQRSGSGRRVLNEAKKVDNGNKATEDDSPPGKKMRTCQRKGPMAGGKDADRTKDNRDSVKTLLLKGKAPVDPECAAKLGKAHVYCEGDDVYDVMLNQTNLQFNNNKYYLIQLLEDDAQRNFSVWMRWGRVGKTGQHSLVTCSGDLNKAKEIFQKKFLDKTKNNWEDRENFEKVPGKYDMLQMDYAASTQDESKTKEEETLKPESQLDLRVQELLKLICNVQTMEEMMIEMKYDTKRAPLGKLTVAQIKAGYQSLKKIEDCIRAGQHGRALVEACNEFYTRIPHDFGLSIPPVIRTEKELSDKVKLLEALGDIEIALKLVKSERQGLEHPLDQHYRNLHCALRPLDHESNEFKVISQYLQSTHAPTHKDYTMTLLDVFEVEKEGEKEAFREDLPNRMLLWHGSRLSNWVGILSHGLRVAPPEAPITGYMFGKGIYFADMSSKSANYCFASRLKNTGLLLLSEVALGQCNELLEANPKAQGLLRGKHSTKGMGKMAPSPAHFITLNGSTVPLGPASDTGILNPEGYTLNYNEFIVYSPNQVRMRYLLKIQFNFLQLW

As usually defined, the IC50 is the concentration that gives 50% inhibition. In the case of `O=c1[nH]c(CCCCN2CC=C(c3ccc(F)cc3)CC2)nc2c(Cl)cccc12`, the IC50 in experiment [1] is 0.5 µM.
On the same count and under the same terms, under `O=C(O)CNc1cccc2c(=O)[nH]ccc12` stands 0.55 µM.
Still for that read-out and setting: under `O=C(Nc1cccc2c(=O)[nH]ccc12)c1ccc(I)cc1` stands 1.3 µM.
Regarding `O=C(Nc1cccc2c(=O)[nH]ccc12)C12CC3CC(CC(C3)C1)C2`, the IC50 in experiment [2] was 42 µM; in experiment [3], more than 50 µM; in experiment [4], more than 200 µM; in experiment [5], more than 200 µM; in [6], more than 200 µM; in [1], 19.9 µM.
For `Cc1cc2c(NC(=O)c3ccccc3)cccc2c(=O)[nH]1`, the IC50 in [1] came out at 6.3 µM.
As for `O=C(O)c1cccc2c(=O)[nH]ccc12`, the IC50 in experiment [7] was less than 13 µM; in experiment [8], less than 13 µM; in experiment [3], more than 25 µM; in experiment [1], more than 25 µM.
Consider `O=C(Nc1cccc2c(=O)[nH]ccc12)c1ccc(C(F)(F)F)cc1`, for which the IC50 in [1] was 3.3 µM.
Consider `NC(=O)c1cccc2nc(-c3ccc(Cl)cc3)cnc12`, for which the IC50 in [1] worked out at 0.09 µM.
On to `O=C(Nc1cccc2c(=O)[nH]ccc12)c1cccs1`, for which the IC50 in experiment [1] is 7 µM.
Take `CC(C)(C)C(=O)Nc1cccc2c(=O)[nH]ccc12`: the IC50 in experiment [2] was more than 200 µM; in experiment [3], more than 100 µM; in experiment [4], more than 200 µM; in experiment [5], more than 200 µM; in [6] it was more than 200 µM; in experiment [1] it was 29 µM. The Ratio IC50 in [9] was more than 3.4.
With `O=C(Nc1cccc2c(=O)[nH]ccc12)C1CCCCC1`, the IC50 in experiment [2] is more than 200 µM; in experiment [3], more than 80 µM; in [4], more than 200 µM; in [5], more than 200 µM; in [6] it was more than 200 µM; in [1] it was 27.9 µM.
For the molecule `O=C(Nc1cccc2c(=O)[nH]ccc12)c1ccc(F)cc1`, the IC50 in experiment [1] stood at 3.6 µM.
Take `O=C(Oc1cccc2c1CCNC2=O)c1ccccc1`: the Ratio in experiment [10] came out at 16.
`O=C(O)/C=C/c1cccc2c(=O)[nH]ccc12`: the concentration for half-maximal inhibition (IC50) in [7] is less than 11 µM; in [1] it was 4.7 µM.
`Cc1ccc(C(=O)Nc2cccc3c(=O)[nH]ccc23)cc1`: the IC50 in experiment [1] is 6.5 µM.
Still for that read-out and setting: under `O=C(O)CCc1cccc2c(=O)[nH]ccc12` stands 3 µM.
Take `O=C(Oc1cccc2c(O)nccc12)c1ccccc1`: the Ratio in experiment [10] was 60. The Ratio IC50 in [9] stood at 2.75.
With `O=C(Nc1cccc2c(=O)[nH]ccc12)c1ccccc1I`, in experiment [1], the 50% inhibitory concentration (IC50) is 3.2 µM.
The same measure, in the same setting: under `O=C(Nc1cccc2c(=O)[nH]ccc12)c1ccc([N+](=O)[O-])cc1` stands 1.6 µM.
For `O=C(Oc1cccc2c(=O)[nH]ccc12)c1ccccc1`, the IC50 in experiment [3] came out at 4.1 µM; in experiment [1] it was 1.5 µM.
As to `Cc1ccccc1C(=O)Nc1cccc2c(=O)[nH]ccc12`, the half-inhibitory concentration (IC50) in [1] came out at 5.6 µM.
`O=C(Nc1cccc2c(=O)[nH]ccc12)c1ccccc1`: the IC50 in experiment [2] is 98 µM; in experiment [4], more than 200 µM; in experiment [5], 139 µM; in [6], more than 200 µM; in [1] it was 1.5 µM.
As usually defined, the inhibition is the share of the control response that was lost under treatment. Consider `Nc1cccc2c(=O)[nH]ccc12`, for which the IC50 in [2] is more than 200 µM; in experiment [3], 0.94 µM and 1 µM; in [4], more than 200 µM; in experiment [5], 170 µM; in [6] it was more than 200 µM; in experiment [1] it was 1.05 µM and 1 µM. This molecule registered an inhibition at 1000 µM in [11] of 40%. The Ratio IC50 in [9] stood at 0.9.
In the case of `N#Cc1ccc(-c2cnc3cccc(C(N)=O)c3n2)cc1`, the Ratio in experiment [10] turned out to be 12.
`Nc1cccc2c(=O)n(CCC(=O)O)ccc12`: the half-maximal inhibitory concentration (IC50) in [1] worked out at 1.6 µM.
Same read-out and setting: to `O=C(Nc1cccc2c(=O)[nH]ccc12)c1ccc(Cl)cc1` belongs 3.9 µM.

Source of the values: ChEMBL document CHEMBL1765088, “5-Benzamidoisoquinolin-1-ones and 5-(ω-carboxyalkyl)isoquinolin-1-ones as isoform-selective inhibitors of poly(ADP-ribose) polymerase 2 (PARP-2)” (J Med Chem, 2011).
